The results in this text go back to patent publication US20120165304A1, “6,7,8,9-Tetrahydro-5H-1,4,7,10a-tetraaza-cyclohept[f]indene derivatives, pharmaceutical compositions containing these compounds, their use and processes for preparing them” (BOEHRINGER INGELHEIM INTERNATIONAL GMBH, priority 2008, published 2012).

The EC50 is the concentration needed to bring the measured effect to its halfway point.

human 5-HT2C receptor, sequence (P28335 33-458 I156V/N158S/I160V limits assumed): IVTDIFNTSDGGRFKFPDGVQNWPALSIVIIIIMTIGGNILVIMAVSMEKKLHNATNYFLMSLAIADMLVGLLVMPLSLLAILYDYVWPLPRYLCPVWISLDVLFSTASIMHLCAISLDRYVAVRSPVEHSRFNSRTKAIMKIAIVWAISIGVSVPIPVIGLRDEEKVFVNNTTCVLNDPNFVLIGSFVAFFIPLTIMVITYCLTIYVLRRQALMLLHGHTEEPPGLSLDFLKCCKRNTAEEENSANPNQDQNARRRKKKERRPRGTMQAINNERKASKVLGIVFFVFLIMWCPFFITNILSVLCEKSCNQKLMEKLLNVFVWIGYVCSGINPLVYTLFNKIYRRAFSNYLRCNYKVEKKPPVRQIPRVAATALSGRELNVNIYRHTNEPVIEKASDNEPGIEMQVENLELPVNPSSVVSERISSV

This test concerns the target human 5-HT2C receptor (Homo sapiens, UniProt P28335, I156V/I160V/N158S). The experiment in a line: cell-based.
On to `FC(F)(F)c1ccnc(OC2CN(c3c4c(nc5ccnn35)CCNCC4)C2)n1` [Example 35.48], for which a half-maximal response (EC50) required 526 nM.
As for `O=C(NC1CCC(C(F)(F)F)CC1)C1CN(c2c3c(nc4ccnn24)CCNCC3)C1` (stereo not shown) [Example 37.60], the figure is 49 nM; as for `CC1CCCN1c1c2c(nc3ccnn13)CCNCC2` (stereo not shown) [Example 1.13], 2300 nM.
On to `c1ccc2sc(C3CN(c4c5c(nc6ccnn46)CCNCC5)C3)nc2c1` [Example 12, 10-(3-Benzothiazol-2-yl-azetidin-1-yl)-6,7,8,9-tetrahydro-5H-1,4,7,10a-tetraaza-cyclohepta[f]indene], for which the response was half-maximal at 253 nM (EC50).
The result for `O=C(NCC(F)(F)F)C1CN(c2c3c(nc4ccnn24)CCNCC3)C1` [Example 37.94] reads 228 nM.
The result for `C#CC1CCN(C(=O)C2CN(c3c4c(nc5ccnn35)CCNCC4)C2)C1` (stereo not shown) [Example 38, (3-Ethynyl-pyrrolidin-1-yl)-[1-(6,7,8,9-tetrahydro-5H-1,4,7,10a-tetraaza-cyclohepta[f]inden-10-yl)-azetidin-3-yl]-methanone] reads 6 nM.
`C#CC1(NC(=O)C2CN(c3c4c(nc5ccnn35)CCNCC4)C2)CCCCC1` [Example 37.79] had an EC50 of 62 nM.
As for `CC1(C)CCN(C(=O)C2CN(c3c4c(nc5ccnn35)CCNCC4)C2)C1` [Example 31.53], the figure is 8 nM; as for `Fc1cc(F)c2nc(C3CN(c4c5c(nc6ccnn46)CCNCC5)C3)[nH]c2c1` [Example 34.24], 136 nM; as for `Cc1ccc(F)c(OCC2CN(c3c4c(nc5ccnn35)CCNCC4)C2)c1` [Example 15.5], 7 nM.
For the compound `O=C(C1CN(c2c3c(nc4c(Br)cnn24)CCNCC3)C1)N1CCC2(CCC2)C1` [Example 31.133], the EC50 worked out at 60 nM.
For the compound `CCc1cnn2c(N3CC(C(=O)N(C)C)C3)c3c(nc12)CCNCC3` [Example 26, 1-(3-Ethyl-6,7,8,9-tetrahydro-5H-1,4,7,10a-tetraaza-cyclohepta[f]inden-10-yl)-azetidine-3-carboxylic acid dimethylamide], the EC50 was 10 nM.
The result for `CC(C)(C)C1CCN(C(=O)C2CN(c3c4c(nc5ccnn35)CCNCC4)C2)CC1` [Example 31.121] reads 22 nM.
Take `CN1C2CCC1CC(NC(=O)C1CN(c3c4c(nc5ccnn35)CCNCC4)C1)C2` (stereo not shown) [Example 37.93]: the 50% effective concentration (EC50) turned out to be 12 nM.
`O=C(C1CN(c2c3c(nc4ccnn24)CCNCC3)C1)N1CCOCC1` [Example 31.17] displayed an EC50 of 276 nM. This EC50 lies about 23-fold higher than the previous one.
In turn, `CCC1CCN(C(=O)C2CN(c3c4c(nc5ccnn35)CCNCC4)C2)CC1` [Example 31.68] showed an EC50 of 46 nM.
The result for `C#CCCN(CC(C)C)C(=O)C1CN(c2c3c(nc4ccnn24)CCNCC3)C1` [Example 31.106] reads 184 nM; that for `CC(C)C1(O)CCN(C(=O)C2CN(c3c4c(nc5ccnn35)CCN(C)CC4)C2)CC1` [Example 36.26], 191 nM; that for `O=C(NC1(c2ccccc2)CC1)C1CN(c2c3c(nc4ccnn24)CCNCC3)C1` [Example 31.92], 921 nM.
As for `CC1CNCCc2c1nc1ccnn1c2N1CCC1` (stereo not shown) [Example 3.1], the figure is 3 nM.
As for `COc1ccc(OCC2CN(c3c4c(nc5ccnn35)CCNCC4)C2)c(F)c1` [Example 15.9], the figure is 7 nM; as for `O=C(NCC1CCCC1)C1CN(c2c3c(nc4ccnn24)CCNCC3)C1` [Example 37.103], 68 nM; as for `CCN(Cc1ccccc1)C(=O)C1CN(c2c3c(nc4ccnn24)CCNCC3)C1` [Example 31.23], 346 nM.
In turn, `CN(Cc1c(Cl)cccc1Cl)C(=O)C1CN(c2c3c(nc4ccnn24)CCNCC3)C1` [Example 31.160] yielded an EC50 of 458 nM. This EC50 and that of the compound before are within 1.5-fold of each other.
For the compound `CC(=O)N1CCN(C(=O)C2CN(c3c4c(nc5ccnn35)CCNCC4)C2)CC1` [Example 37.36], the response was half-maximal at 10 nM (EC50). This EC50 lies about 46-fold lower than the previous one.
As to `C=CCC1CN(C(=O)C2CN(c3c4c(nc5ccnn35)CCNCC4)C2)Cc2ccccc21` (stereo not shown) [Example 31.88], the EC50 came out at 71 nM.
In the case of `COc1ccc(CCN(C)C(=O)C2CN(c3c4c(nc5ccnn35)CCNCC4)C2)cc1` [Example 31.27], the EC50 turned out to be 274 nM.
In the case of `O=C(C1CN(c2c3c(nc4ccnn24)CCNCC3)C1)N1CCC(F)(F)C1` [Example 31.148], the EC50 was 19 nM.
On to `O=C(C1CN(c2c3c(nc4ccnn24)CCNCC3)C1)N1CC[C@H]2CCCC[C@@H]2C1` [Example 31.130], for which the EC50 was found to be 57 nM. This EC50 is about 3-fold higher than that of the compound before.
`FC(F)(F)c1cccc(OC2CN(c3c4c(nc5ccnn35)CCNCC4)C2)n1` [Example 20.10] showed an EC50 of 181 nM.
As for `O=C(C1CN(c2c3c(nc4ccnn24)CCNCC3)C1)N1CCC2(CCC2)C1` [Example 31.56], the figure is 43 nM.
In turn, `c1cncc(Cn2c(C3CN(c4c5c(nc6ccnn46)CCNCC5)C3)nc3ccccc32)c1` [Example 34.27] yielded a concentration giving a half-maximal response (EC50) of 46 nM.
`O=C(C1CN(c2c3c(nc4ccnn24)CCNCC3)C1)N1CCC(Cc2ccccc2)CC1` [Example 31.126] returned an EC50 of 47 nM.
As for `CN(Cc1cccc2ccccc12)C(=O)C1CN(c2c3c(nc4ccnn24)CCNCC3)C1` [Example 31.76], the figure is 81 nM.
`CCCCNC(=O)C1CN(c2c3c(nc4ccnn24)CCNCC3)C1` [Example 37.72] returned an EC50 of 91 nM.
As for `O=C(C1CN(c2c3c(nc4ccnn24)CCNCC3)C1)N1CCc2ccc(C(F)(F)F)cc21` [Example 31.157], the figure is 34 nM.
Compound `CCc1cnn2c(N3CCC3)c3c(nc12)CCNCC3` [Example 25.2] showed an EC50 of 12 nM. Against the preceding compound, the EC50 is about 2.8-fold lower.
`COCC1(CNC(=O)C2CN(c3c4c(nc5ccnn35)CCNCC4)C2)CCCC1` [Example 37.69] gave an EC50 of 73 nM.
`O=C(C1CN(c2c3c(nc4ccnn24)CCNCC3)C1)N1CCC2(CCCCC2)C1` [Example 31.48] displayed an EC50 of 38 nM. This EC50 lies about 1.9-fold lower than the previous one.
The compound `c1cc(OC2CN(c3c4c(nc5ccnn35)CCNCC4)C2)c2ccncc2c1` [Example 35.16] had an EC50 of 92 nM. This EC50 lies about 2.4-fold higher than the previous one.
The compound `CC1CN(C(=O)C2CN(c3c4c(nc5ccnn35)CCN(C)CC4)C2)CC(C)N1C` (stereo not shown) [Example 36.7] yielded a concentration for a half-maximal effect (EC50) of 106 nM. This EC50 and that of the compound before are within 1.5-fold of each other.
As for `OC[C@H]1CCN1c1c2c(nc3ccnn13)CCNCC2` [Example 8.2], the figure is 105 nM; as for `CN(C)C(=O)[C@@H]1CCN(c2c3c(nc4ccnn24)CCNCC3)C1` [Example 1.62], 2070 nM; as for `FC(F)(F)c1cnc(OC2CN(c3c4c(nc5ccnn35)CCNCC4)C2)c(Cl)c1` [Example 20.7], 424 nM.
For the compound `COc1ccc(CN(C)C(=O)C2CN(c3c4c(nc5ccnn35)CCNCC4)C2)cc1` [Example 31.26], the EC50 turned out to be 29 nM.
As for `O=C(C1CN(c2c3c(nc4ccnn24)CCNCC3)C1)N1CCc2c(F)cccc2C1` [Example 31.204], the figure is 33 nM; as for `CCNC(=O)C1CN(c2c3c(nc4ccnn24)CCNCC3)C1` [Example 37.95], 742 nM.
The result for `COc1cccc(F)c1OCC1CN(c2c3c(nc4ccnn24)CCNCC3)C1` [Example 15.23] reads 47 nM; that for `CC1(N)CCN(C(=O)C2CN(c3c4c(nc5ccnn35)CCNCC4)C2)CC1` [Example 37.18], 2 nM; that for `Cn1c(C2CN(c3c4c(nc5ccnn35)CCNCC4)C2)nc2ccc(F)cc21` [Example 34.4], 24 nM.
In turn, `O=C(C1CN(c2c3c(nc4ccnn24)CCNCC3)C1)N1CCN(C2CCCCC2)CC1` [Example 37.38] displayed an EC50 of 3 nM.
In turn, `O=C(C1CN(c2c3c(nc4ccnn24)CCNCC3)C1)N1CCc2cccc(C(F)(F)F)c2C1` [Example 31.122] registered an EC50 of 33 nM.
Consider `CC1CNCCc2c1nc1c(Br)cnn1c2N1CCC1` (stereo not shown) [Example 4, 10-Azetidin-1-yl-3-bromo-5-methyl-6,7,8,9-tetrahydro-5H-1,4,7,10a-tetraaza-cyclohepta[f]indene], for which the EC50 is 679 nM.
Regarding `O=C(C1CN(c2c3c(nc4ccnn24)CCNCC3)C1)N1CCc2cc(Cl)ccc21` [Example 31.147], the response was half-maximal at 78 nM (EC50).
`CC1(C)CCN(C(=O)C2CN(c3c4c(nc5c(Br)cnn35)CCNCC4)C2)CC1` [Example 31.138] gave an EC50 of 71 nM.
Compound `O=C(C1CN(c2c3c(nc4ccnn24)CCNCC3)C1)N1CC[C@H](F)C1` [Example 31.202] registered an EC50 of 162 nM.
On to `O=C(C1CN(c2c3c(nc4ccnn24)CCNCC3)C1)N1CCCC(c2ccccc2F)C1` (stereo not shown) [Example 31.117], for which the EC50 turned out to be 291 nM.
The compound `CN1CCc2nc3ccnn3c(N3CC(C(=O)N4CCN(C(=O)C5CCCC5)CC4)C3)c2CC1` [Example 36.58] came in with an EC50 of 447 nM.
With `CCN1CCN(C(=O)C2CN(c3c4c(nc5ccnn35)CCNCC4)C2)CC1` [Example 37.1], the EC50 stood at 3 nM.
As for `CN1CCN(C(=O)C2CN(c3c4c(nc5ccnn35)CCNCC4)C2)CC1` [Example 37.35], the figure is 4 nM; as for `CN(C)C1CCN(C(=O)C2CN(c3c4c(nc5ccnn35)CCNCC4)C2)CC1` [Example 37.2], 1 nM; as for `CN(Cc1nccs1)C(=O)C1CN(c2c3c(nc4ccnn24)CCNCC3)C1` [Example 31.13], 99 nM.
For `O=C1CCCN1c1ccc(OC2CN(c3c4c(nc5ccnn35)CCNCC4)C2)c(Cl)c1` [Example 35.26], the midpoint of the response, the EC50, lay at 115 nM.
As to `CC1CCCC(NC(=O)C2CN(c3c4c(nc5ccnn35)CCNCC4)C2)C1` (stereo not shown) [Example 37.70], the EC50 came out at 69 nM. Against the preceding compound, the EC50 is about 1.7-fold lower.
Take `O=C(C1CN(c2c3c(nc4ccnn24)CCNCC3)C1)N1Cc2ccccc2C1` [Example 31.44]: the EC50 was 113 nM.
In turn, `CN(Cc1cccc(Br)c1)C(=O)C1CN(c2c3c(nc4ccnn24)CCNCC3)C1` [Example 31.79] showed an EC50 of 20 nM.
`CCc1cnn2c(N3CCCCC3)c3c(nc12)CCNCC3` [Example 25, 3-Ethyl-10-piperidin-1-yl-6,7,8,9-tetrahydro-5H-1,4,7,10a-tetraaza-cyclohepta[f]indene] yielded an EC50 of 106 nM.
In turn, `O=C(C1CN(c2c3c(nc4ccnn24)CCNCC3)C1)N1CCC(O)(c2cccc(C(F)(F)F)c2)CC1` [Example 31.226] gave an EC50 of 74 nM. The EC50 values of the last two compounds are within 1.5-fold of each other.
With `O=C(C1CN(c2c3c(nc4ccnn24)CCNCC3)C1)N1CC(F)(F)C(F)(F)C1` [Example 31.200], the response was half-maximal at 28 nM (EC50). Against the preceding compound, the EC50 is about 2.6-fold lower.
As for `O=C(NC1CCc2ccccc21)C1CN(c2c3c(nc4ccnn24)CCNCC3)C1` (stereo not shown) [Example 31.32], the midpoint of the response, the EC50, lay at 49 nM.
